The values below come from article PMC10447463, “Data-mining unveils structure–property–activity correlation of viral infectivity enhancing self-assembling peptides” (Nature Communications, 2023).

Series [1] has as its system HIV-1 infection of TZM-bl cells. As to the kind of experiment: HIV-1 infectivity enhancement assay, β-galactosidase luminescence. It is filed as cell-based. The conditions noted are these: for Log10 Inf. rel. to EF-C: log10 of HIV-1 infection of TZM-bl cells relative to EF-C, Fig S15 source data, asymmetric std dev errors.
The nature of series [2]: Zeta-potential measurement. It counts as physicochemical. The settings on record: zeta potential of peptide; Fig S15 source data. On the procedure:
4 µL of 1 mg/mL peptide fibrils solution is added to a 20 µL, 50 µM ThT–solution in PBS. The mixture is incubated for 15 min at RT to allow binding of ThT dye with β–sheet rich structures. For reference PBS (4 µL) was added instead of peptide fibril solution. The samples were placed in black UV Star® 384 microliter well–plates (Greiner bio–one). Fluorescence spectra were recorded on an Infinite® M1000 PRO microplate reader (Tecan) at λem = 488 nm upon excitation at λex = 440 nm with 10 nm bandwidths and multiple reads per well (3×3). Measurements were repeated in triplicates and averaged with standard deviation. […] Zeta-Potential. For the determination of the surface charge of aggregated peptides zeta-potential measurements were conducted with a Zetasizer Nano ZS, Malvern Instruments. Unless stated otherwise the peptides were dissolved from DMSO (10 mg/mL) in PBS (pH 7.4) to concentration of 1 mg/mL and incubated for 1d at RT. Just before the measurement the 60 µL of the peptides were further diluted in 600 µL KCl (aq, 1 mM) in a 1 mL disposable folded capillary cells (DTS–1060, Zetasizer Nano series, Malvern). The zeta potential of the peptides was derived from the electrophoretic mobility based on the Smoluchowski formula. All measurements were averaged over two individually performed experiments and conducted in triplicates for each sample. Aggregate analysis. […] Furthermore, fluorescence microscopy was conducted by staining 1 µL preformed fibrils (1 mg/mL) with 9 µL ThT (50 µM). Brightfield microscopy was performed simultaneously to evaluate aggregation also for non ThT-active fibrils. The measurements were performed on a Leica DMi8 microscope with 10x air objective and equipped with a Leica MC170 HD camera with a filter setting λem = 527/30 nm upon excitation at λex = 480/40 nm) and processed with the Leica LASX software. To quantify size and number of microscopic aggregation of particles > 10 µm^2 at least 3 independently measured images were analyzed via the 3D object counter analysis tool of ImageJ, v 1.53f51. Sum–frequency generation. The SFG experiments were carried out with a femtosecond Ti: Sapphire amplified laser system (Spitfire Ace, Spectra–Physics, 800 nm, 40 fs, 1 kHz) with 5 W output power. We used 2 W to pump an optical parametric amplifier (TOPAS, light conversion) with a non–collinear difference frequency generation stage to generate broadband IR pulses. Another 1 W of the laser output passed through an etalon to generate narrowband visible pulses (10 cm^-1). The incident angles of the visible and IR beams were 36° and 41° with respect to the surface normal, respectively. The visible (13 µJ) and IR (5 µJ) pulses were overlapped spatially and temporally at the sample position. Subsequently, the generated SFG pulse was guided into a spectrograph (Acton SP 300i, Princeton Instruments), and detected with an EMCCD (Newton, Andor Technology). To avoid IR absorption of water vapor, we purged N2 for the measurement. All spectra were collected in the ssp (denoting s-, s- and p-polarized SFG, visible and IR, respectively) polarization combination. The spectra were normalized to the non–resonant signal taken from z–cut quartz after subtracting a background spectrum. […]

Series [3] is classed as physicochemical. The arrangement: key to Fibril / Fibril Formation / TEM 2cat / Fibril: 1 = fibrils present; 0 non-fibrillar structures. The conditions noted are these: TEM, 1 mg/mL, uranyl acetate stain, qualitative. On the procedure:
For ATR FT–IR spectroscopy measurements, 200 µL of the respective 1 mg/mL PNF solution was lyophilized and the resulting powder used for measurement. All spectra were recorded on a Bruker Tensor 27 spectrometer with a diamond crystal as ATR element (PIKE MiracleTM, spectral resolution 2 cm^-1). Every sample was measured with 64 scans. Data were analyzed with OriginLab software and calculation of β–sheet content was conducted according to a previous report. TEM. For TEM measurements 5 µL of PNF fibrils (1 mg/mL) were placed on copper grids coated with carbon and formvar layer (300 mesh, Plano GmbH). After 10 min incubation time, the grids were staining with 4% uranyl acetate solution for 2.5 min and washed with water. Measurements were performed on a Jeol 1400 electron microscope with 120 kV acceleration voltage. CR Assay. For the determination of the amount of peptide monomer converting into nanostructures the amine reactive dye fluorescamine was used analogous to a previous reported protocol. Briefly, 100 µL of the preformed PNF solution was centrifuged in a Vivaspin 500 tube (3 kDa MWCO) to separate fibers from free peptide monomer (16200 x g, 4 °C, 45 min). The filtrate and 100 μL of the non-filtered PNF sample were lyophilized and dissolved in 30 μL DMSO. 10 μL of the filtrate and non-filtered DMSO samples were submitted in a black UV Star® 384 microliter well–plates (Greiner bio–one) and 3 μL of the fluorescamine solution (10 mg/mL, DMSO) was added to measure the fluorescence enhancement. After 20 min of incubation at RT, fluorescence was recorded on an Infinite® M1000 PRO microplate reader (Tecan) at λem = 470 nm upon excitation at λex = 365 nm with 10 nm bandwidths and multiple reads per well (3×3). Measurements were repeated in triplicates and averaged with standard deviation. All values were calculated as n-fold fluorescence enhancement (DMSO only as a reference was set to 1). The conversion rate CR was defined according to the equation Eq. (3).3 CR=100−100×fluorescenceintensityfiltrate/fluorescenceintensityoriginal[%]
(§1) 1. Remarks on experimental parameters and bioinformatic descriptors
1.1 Experimental parameters
Transmission electron microscopy (TEM) measurements. TEM measurements were used to control if peptides assemble. The assemblies were categorized in non -fibrillar structures (no assembly, […]
grid but only amorphous aggregates. In contrast, peptides defined as fibrillar may also include amorphous structures. Amongst nonfibrillar assemblies also amorphous aggregates are summarized.
Amorphous aggregates are defined as structures with high β-sheet content which lack long-range order, that is crystallinity or fibril formation. It is generally assumed that these structures might be

The format of series [4] is physicochemical. The conditions noted are these: ThT-active if fluorescence at least twice the control. On the procedure:
4 µL of 1 mg/mL peptide fibrils solution is added to a 20 µL, 50 µM ThT–solution in PBS. The mixture is incubated for 15 min at RT to allow binding of ThT dye with β–sheet rich structures. For reference PBS (4 µL) was added instead of peptide fibril solution. The samples were placed in black UV Star® 384 microliter well–plates (Greiner bio–one). Fluorescence spectra were recorded on an Infinite® M1000 PRO microplate reader (Tecan) at λem = 488 nm upon excitation at λex = 440 nm with 10 nm bandwidths and multiple reads per well (3×3). Measurements were repeated in triplicates and averaged with standard deviation. […] Zeta-Potential. For the determination of the surface charge of aggregated peptides zeta-potential measurements were conducted with a Zetasizer Nano ZS, Malvern Instruments. Unless stated otherwise the peptides were dissolved from DMSO (10 mg/mL) in PBS (pH 7.4) to concentration of 1 mg/mL and incubated for 1d at RT. Just before the measurement the 60 µL of the peptides were further diluted in 600 µL KCl (aq, 1 mM) in a 1 mL disposable folded capillary cells (DTS–1060, Zetasizer Nano series, Malvern). The zeta potential of the peptides was derived from the electrophoretic mobility based on the Smoluchowski formula. All measurements were averaged over two individually performed experiments and conducted in triplicates for each sample. Aggregate analysis. […] Furthermore, fluorescence microscopy was conducted by staining 1 µL preformed fibrils (1 mg/mL) with 9 µL ThT (50 µM). Brightfield microscopy was performed simultaneously to evaluate aggregation also for non ThT-active fibrils. The measurements were performed on a Leica DMi8 microscope with 10x air objective and equipped with a Leica MC170 HD camera with a filter setting λem = 527/30 nm upon excitation at λex = 480/40 nm) and processed with the Leica LASX software. To quantify size and number of microscopic aggregation of particles > 10 µm^2 at least 3 independently measured images were analyzed via the 3D object counter analysis tool of ImageJ, v 1.53f51. Sum–frequency generation. The SFG experiments were carried out with a femtosecond Ti: Sapphire amplified laser system (Spitfire Ace, Spectra–Physics, 800 nm, 40 fs, 1 kHz) with 5 W output power. We used 2 W to pump an optical parametric amplifier (TOPAS, light conversion) with a non–collinear difference frequency generation stage to generate broadband IR pulses. Another 1 W of the laser output passed through an etalon to generate narrowband visible pulses (10 cm^-1). The incident angles of the visible and IR beams were 36° and 41° with respect to the surface normal, respectively. The visible (13 µJ) and IR (5 µJ) pulses were overlapped spatially and temporally at the sample position. Subsequently, the generated SFG pulse was guided into a spectrograph (Acton SP 300i, Princeton Instruments), and detected with an EMCCD (Newton, Andor Technology). To avoid IR absorption of water vapor, we purged N2 for the measurement. All spectra were collected in the ssp (denoting s-, s- and p-polarized SFG, visible and IR, respectively) polarization combination. The spectra were normalized to the non–resonant signal taken from z–cut quartz after subtracting a background spectrum.
as §1

Setting [5] is: infectivity class (low / medium / high) of each library peptide, main list in c1-c6, same classes repeated in sub-lists of sequences containing the hydrophobicity/charge patterns P+,H0,P+,H0,P0,H0,P0, P+,H0,P0,H0,P0,H0,P0, P+,H0,P0,H0.
Where [6] appears, read: input.xlsx of the Pattern-Analysis script, infectivity relative to EF-C (peptide 59 = 1.00).

Take CETMYDKILKNLSRSR [CR16]: in series [1] (setting [5]), the infectivity result was “low”. In series [1], the “Log10 Inf. rel. to EF-C” value was -1.716. In series [2], the “Zeta-pot. / mV” value was determined as 0.41 mV. As to CKFC [CN33], in series [1] (setting [5]), the infectivity entry is recorded as “low”. Moreover, the “Log10 Inf. rel. to EF-C” value in series [1] is reported as -1.959. The “Zeta-pot. / mV” value in series [2] is reported as -19.89 mV. Consider CKFQC [CN31], for which the infectivity result in series [1] (setting [5]) was “low”. For the same substance, in series [1], the “Log10 Inf. rel. to EF-C” value was -1.643. Also, in series [2], the “Zeta-pot. / mV” value is given as -17.38 mV. For KKWWNF, the “Fibril / Fibril Formation” value in series [3] is on record as 0. In addition, the “ThT Cat. / ThT-Fluorescence (categorical)” value (“ThT Cat. / ThT-Fluorescence” for short) in series [4] is 0 (ThT-inactive (N-Fold <2)). KVWWNF: the “Fibril / Fibril Formation” value in series [3] came to 0. In addition, the “ThT Cat. / ThT-Fluorescence” value in series [4] is 0 (ThT-inactive (N-Fold <2)). With NMWQKIKIQI [compound 72], the infectivity in series [1] (setting [6]) came to 0.21. Turning to NMWQKIKQII [compound 71], in series [1] (setting [6]), the infectivity worked out at 0.0253. In the case of NMWQKVGTPL [compound 70], the infectivity in series [1] (setting [6]) is on record as 0.0247. Regarding PPFHPPPFHP [compound 38], the infectivity in series [1] (setting [6]) came to 0.0177.

Regarding QCKAKAQA [compound 21], the infectivity in series [1] (setting [6]) is 0.0253.

For the substance QCKAKAQANM [compound 20], the infectivity in series [1] (setting [6]) came out at 0.0146. On to QCKAKAQANMWQ [compound 19], for which the infectivity in series [1] (setting [6]) was determined as 0.07.

In the case of QCKFKFQF [compound 27], the infectivity in series [1] (setting [6]) is 0.77.

Take QCKFKFQFNM [compound 26]: the infectivity in series [1] (setting [6]) is 0.51. Regarding QCKFKFQFNMWQ [compound 25], the infectivity in series [1] (setting [6]) turned out to be 0.62. With QCKFKQFF [compound 14], in series [1] (setting [6]), the infectivity is on record as 0.0124. For the substance QCKFKQFFNM [compound 13], the infectivity in series [1] (setting [6]) was 0.43. As for QCKIKIQI [compound 22], the infectivity in series [1] (setting [6]) came out at 0.11. With QCKIKIQINM [compound 18], the infectivity in series [1] (setting [6]) worked out at 0.40. As for QCKIKIQINMWQ [compound 60], the infectivity in series [1] (setting [6]) came to 1.04. Turning to QCKIKQII [compound 24], the infectivity in series [1] (setting [6]) worked out at 0.00647. In the case of QCKIKQIINM [compound 23], the infectivity in series [1] (setting [6]) was 0.35.

On to QCKIKQIINMWQ [compound 59], for which the infectivity in series [1] (setting [6]) came out at 1.00.

For the substance RGDCKFKFQF [compound 145], in series [1] (setting [6]), the infectivity was found to be 0.15. With RGDCKIKIQINM [compound 142], the infectivity in series [1] (setting [6]) is listed as 0.24. As for RGDKIKIQI [compound 97], the infectivity in series [1] (setting [6]) was 0.0157.

Consider RGDKIKIQIC [compound 103], for which the infectivity in series [1] (setting [6]) is given as 0.83. As to RGDKIKIQINM [compound 104], the infectivity in series [1] (setting [6]) is reported as 0.41. Turning to RGDKIKIQINMC [compound 111], the infectivity in series [1] (setting [6]) was determined as 1.07. In the case of RGDKIKIQINMWQ [compound 105], the infectivity in series [1] (setting [6]) came out at 0.76.

Regarding RGDKIRGDKI [compound 51], the infectivity in series [1] (setting [6]) stood at 0.00748.

RGDSGGGGGGKIKIQIC [compound 127]: the infectivity in series [1] (setting [6]) came out at 0.87.

For the substance RGDSKIKIQIC [compound 126], the infectivity in series [1] (setting [6]) came out at 0.60. Consider RGECKFKFQF [compound 32], for which the infectivity in series [1] (setting [6]) was determined as 0.33.

Consider RGEKIKIQINM [compound 33], for which, in series [1] (setting [6]), the infectivity came out at 0.24.

In the case of RLRLTLC [compound 30], the infectivity in series [1] (setting [6]) was 0.05.

Take RPRGLLLGNLR [compound 36]: the infectivity in series [1] (setting [6]) was found to be 0.05. Take RVWWNF: the “Fibril / Fibril Formation” value in series [3] is on record as 0. Also, the “ThT Cat. / ThT-Fluorescence” value in series [4] was 0 (ThT-inactive (N-Fold <2)).

SISISRRI [compound 44]: in series [1] (setting [6]), the infectivity is 0.0283. As to TKTLTKTL [compound 41], the infectivity in series [1] (setting [6]) worked out at 0.0213.
